Laboratory results from PubChem BioAssay (NCI).
Values joined by “and” are separate entries in the source; they are usually repeats but may differ in a detail not shown here. Equal values may be shown once.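 Protocol summary: plate cells (96-well), add compound at 5 concentrations, incubate 48 h, interpolate endpoints linearly. The concentration for 50% growth inhibition is given as GI50. Definition used: TGI = concentration required for complete inhibition of growth.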

Experiments:
Assay in all cases: NCI-60 cell line screen, 48 h
[1] = tested on: OVCAR-3 ovarian
[2] = tested on: MCF7 breast
[3] = tested on: NCI/ADR-RES ovarian
[4] = tested on: OVCAR-5 ovarian
[5] = tested on: HT29 colon
[6] = tested on: HCT-15 colon
[7] = tested on: RPMI-8226 leukemia
[8] = tested on: SW-620 colon
[9] = tested on: IGROV1 ovarian
[10] = tested on: HS 578T breast

Compound	GI50 [1]	TGI [1]	GI50 [2]	TGI [2]	GI50 [3]	TGI [3]	GI50 [4]	TGI [4] [µM]	GI50 [5]	TGI [5]	GI50 [6]	TGI [6]	GI50 [7]	TGI [7]	GI50 [8]	TGI [8]	GI50 [9]	GI50 [10]	TGI [10]	TGI [9]
O=P(O)(O)OCC1OC(n2cnc3c(NCc4ccco4)ncnc32)C(O)C1O (stereo unspecified)	0.422 µM	1.65 µM	0.776 µM	> 21.6 µM	1.62 µM	> 53.7 µM	5.64 µM	> 100	2.98 µM	> 100 µM	0.701 µM	> 56.9 µM	0.298 µM	2.66 µM	0.993 µM	> 44.3 µM	1.39 µM	0.802 µM	7.17 µM	
C=C(C)[C@@H]1CC[C@]2(COCCCNCCCN)CC[C@]3(C)[C@H](CC[C@@H]4[C@@]5(C)CC[C@H](OCCCN)C(C)(C)[C@@H]5CC[C@]43C)[C@@H]12	0.942 µM	1.72 µM	0.879 µM	1.7 µM	0.936 µM	1.87 µM	0.918 µM	1.67	0.813 µM	1.53 µM	0.86 µM	1.59 µM	1.07 µM	2.56 µM	0.871 µM	1.67 µM	0.93 µM	0.997 µM	2.15 µM	1.72 µM
O=C1CSC(c2ccc(-c3nc4ccccc4[nH]3)cc2)=N1	33.8 µM	> 50 µM	8.89 µM	> 50 µM	> 50 µM	> 50 µM	> 50 µM	> 50			16.7 µM	> 50 µM	11.7 µM	> 50 µM	> 50 µM	> 50 µM	21.9 µM	25.1 µM	> 50 µM	> 50 µM
CCN(CC)CCC(=O)OC1C(C)=CC(C)C(=O)CC(C(C)CC2CCC(O)C(OC)C2)OC(=O)C2CCCCN2C(=O)C(=O)[C@@]2(O)OC(CCC2C)CC(OC)\C(C)=C/C=C/C=C/C(C)CC(C)C(=O)C1OC (stereo partly specified)		23.5 µM		16.1 µM		25.8 µM		25.6		19.9 µM		20.6 µM		43.2 µM		25.3 µM			13.7 µM	14.7 µM
Nc1ncnc2c1c(-c1ccc(Oc3ccccc3)cc1)nn2C[C@H]1SSC[C@@H]1O	0.251 µM	0.684 µM	0.289 µM	4.37 µM	2.73 µM	37.1 µM	6.35 µM	41	0.304 µM	7.35 µM	0.622 µM	16.4 µM	4.2 µM	20.4 µM			1.43 µM	2.81 µM	10.6 µM	8.11 µM
COc1cc2c3c(n(CCCCNC(=O)OC(C)(C)C)c(=O)c2cc1OC)-c1cc2c(cc1C3=O)OCO2	0.225 µM	65.9 µM	5.15 µM	> 100 µM	> 100 µM	> 100 µM	> 100 µM	> 100	> 100 µM	> 100 µM	> 100 µM	> 100 µM			> 100 µM	> 100 µM	> 100 µM	59 µM	> 100 µM	> 100 µM
Oc1[nH]c(N=C2N=c3ccccc3=N2)c2ccccc12	5.16 µM	19.2 µM	2.65 µM	23.7 µM	3.87 µM	30.1 µM	20.4 µM	68.1	9.18 µM	39.7 µM	3.54 µM	> 100 µM	14.9 µM	72.1 µM	10.6 µM	32.4 µM	1.28 µM	10.7 µM	39.8 µM	33.7 µM
CC(=O)O[C@@]12CO[C@@H]1C[C@H](O)[C@@]1(C)C(=O)[C@H](O)C3=C(C)[C@@H](OC(=O)[C@H](O)[C@@H](NC(=O)OC(C)(C)C)c4ccccc4)C[C@@](O)([C@@H](OC(=O)c4ccccc4)C12)C3(C)C (stereo partly specified)	< 0.005 µM		< 0.005 µM	50 µM and 33.5 µM	0.35 µM and 2.05 µM	2.77 µM and 15.4 µM		89.2	< 0.005 µM	41.7 µM	0.0441 µM and 0.327 µM	50 µM and > 100 µM	< 0.005 µM	34 µM and 24.5 µM	< 0.005 µM	50 µM and > 100 µM	0.0357 µM	< 0.005 µM	23.5 µM and > 100 µM	> 100 µM
CN(C)C[C@H]1CCn2c(c(C3=C(c4cn(C)c5ccccc45)C(=O)NC3=O)c3ccccc32)C1	4.54 µM	8.97 µM	4.25 µM	9.36 µM	5.67 µM	14.2 µM	5.35 µM	17	3.45 µM	11.5 µM	4.51 µM	14.8 µM	4.88 µM	10.5 µM	4.42 µM	8.89 µM	6.11 µM	2.78 µM	10.1 µM	12.2 µM
O=C1Nc2ccccc2/C1=C\c1cccc(/C=C2/C(=O)Nc3ccccc32)n1	0.254 µM	0.683 µM	0.226 µM	0.851 µM	0.689 µM	6.47 µM	0.888 µM	2.4	0.226 µM	0.529 µM	0.219 µM	0.618 µM	0.232 µM	0.699 µM	0.162 µM	0.329 µM	0.44 µM	0.294 µM	1.31 µM	1.67 µM
CN(C)c1ccc(C(=N)c2ccc(N(C)C)cc2)cc1	1.68 µM and 1.91 µM	5.26 µM and 7.3 µM	1.34 µM and 1.29 µM	32.3 µM and 38.3 µM	1.68 µM and 1.52 µM	7.42 µM and 5.04 µM	7.57 µM and 7.89 µM	> 100	1.32 µM and 2.11 µM	11.6 µM and 16.4 µM	2.56 µM and 2.6 µM	> 100 µM	1.8 µM and 2.28 µM	7.43 µM and 10.9 µM	1.95 µM and 2.58 µM	20.8 µM and > 100 µM	3.45 µM and 7.32 µM	1.73 µM and 4.1 µM	7.64 µM and 59.3 µM	31.7 µM and > 100 µM
CC(CN1CC(=O)NC(=O)C1)N1CC(=O)NC(=O)C1 (stereo unspecified)		701 µM		> 750 µM		> 698 µM		749		> 687 µM		> 750 µM		> 750 µM		> 750 µM			> 391 µM	> 725 µM
CN(C)C(=S)/N=c1\ssc(=S)n1Cc1cccs1		6.57 µM		> 30.4 µM		5.1 µM		> 100		> 100 µM		> 100 µM		> 100 µM		> 100 µM			5.17 µM	> 100 µM
